Test results taken from patent US11572590B2, “Methods for evaluating tumor cell spheroids using 3D microfluidic cell culture device” (Dana-Farber Cancer Institute, Inc., priority 2017, dated 2023).
Read-outs that look alike come from different tables or passages of the source.

Assays:
Test in all cases: SelectScreen Kinase Profiling, single point inhibition and IC50 for off-target kinases
Format in all cases: biochemical
off-target kinases [1] = molecular target: off-target kinases (Homo sapiens, UniProt P07949, V804L); settings: RET V804L, ATP Km app, ZLYTE
off-target kinases (Homo sapiens, UniProt P07949, V804L), sequence (P07949 29-1114 V804L): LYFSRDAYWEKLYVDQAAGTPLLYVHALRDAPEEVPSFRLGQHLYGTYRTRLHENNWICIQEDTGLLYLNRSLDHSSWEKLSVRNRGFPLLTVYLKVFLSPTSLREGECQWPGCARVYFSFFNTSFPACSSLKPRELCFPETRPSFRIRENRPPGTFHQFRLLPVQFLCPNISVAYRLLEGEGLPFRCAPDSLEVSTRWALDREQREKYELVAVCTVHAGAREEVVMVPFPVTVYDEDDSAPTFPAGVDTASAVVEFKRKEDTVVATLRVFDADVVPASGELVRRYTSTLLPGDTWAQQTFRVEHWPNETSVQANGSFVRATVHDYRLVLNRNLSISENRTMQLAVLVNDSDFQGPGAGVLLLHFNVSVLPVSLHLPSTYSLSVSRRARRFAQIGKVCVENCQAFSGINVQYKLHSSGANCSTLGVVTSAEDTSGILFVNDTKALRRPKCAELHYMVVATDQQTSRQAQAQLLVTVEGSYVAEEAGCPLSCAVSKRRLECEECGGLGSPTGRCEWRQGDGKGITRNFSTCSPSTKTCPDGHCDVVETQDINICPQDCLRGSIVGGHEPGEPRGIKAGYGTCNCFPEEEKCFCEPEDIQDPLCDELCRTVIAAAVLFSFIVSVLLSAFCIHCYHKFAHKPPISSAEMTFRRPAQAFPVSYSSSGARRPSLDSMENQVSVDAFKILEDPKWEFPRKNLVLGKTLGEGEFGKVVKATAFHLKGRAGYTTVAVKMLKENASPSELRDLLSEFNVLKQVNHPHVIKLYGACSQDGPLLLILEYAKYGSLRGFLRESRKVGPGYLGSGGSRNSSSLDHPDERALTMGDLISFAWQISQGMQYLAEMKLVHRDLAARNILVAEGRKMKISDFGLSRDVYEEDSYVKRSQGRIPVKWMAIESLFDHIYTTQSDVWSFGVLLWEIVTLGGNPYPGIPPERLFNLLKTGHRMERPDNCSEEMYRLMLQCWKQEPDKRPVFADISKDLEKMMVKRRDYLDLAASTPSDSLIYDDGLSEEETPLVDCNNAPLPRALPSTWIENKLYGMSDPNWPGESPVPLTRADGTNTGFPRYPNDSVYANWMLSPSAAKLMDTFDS

off-target kinases [2] = molecular target: off-target kinases (Homo sapiens, UniProt P30530, R499C); settings: AXL R499C, mutant y, LanthaScreen Binding
off-target kinases (Homo sapiens, UniProt P30530, R499C), sequence (P30530 26-894 R499C): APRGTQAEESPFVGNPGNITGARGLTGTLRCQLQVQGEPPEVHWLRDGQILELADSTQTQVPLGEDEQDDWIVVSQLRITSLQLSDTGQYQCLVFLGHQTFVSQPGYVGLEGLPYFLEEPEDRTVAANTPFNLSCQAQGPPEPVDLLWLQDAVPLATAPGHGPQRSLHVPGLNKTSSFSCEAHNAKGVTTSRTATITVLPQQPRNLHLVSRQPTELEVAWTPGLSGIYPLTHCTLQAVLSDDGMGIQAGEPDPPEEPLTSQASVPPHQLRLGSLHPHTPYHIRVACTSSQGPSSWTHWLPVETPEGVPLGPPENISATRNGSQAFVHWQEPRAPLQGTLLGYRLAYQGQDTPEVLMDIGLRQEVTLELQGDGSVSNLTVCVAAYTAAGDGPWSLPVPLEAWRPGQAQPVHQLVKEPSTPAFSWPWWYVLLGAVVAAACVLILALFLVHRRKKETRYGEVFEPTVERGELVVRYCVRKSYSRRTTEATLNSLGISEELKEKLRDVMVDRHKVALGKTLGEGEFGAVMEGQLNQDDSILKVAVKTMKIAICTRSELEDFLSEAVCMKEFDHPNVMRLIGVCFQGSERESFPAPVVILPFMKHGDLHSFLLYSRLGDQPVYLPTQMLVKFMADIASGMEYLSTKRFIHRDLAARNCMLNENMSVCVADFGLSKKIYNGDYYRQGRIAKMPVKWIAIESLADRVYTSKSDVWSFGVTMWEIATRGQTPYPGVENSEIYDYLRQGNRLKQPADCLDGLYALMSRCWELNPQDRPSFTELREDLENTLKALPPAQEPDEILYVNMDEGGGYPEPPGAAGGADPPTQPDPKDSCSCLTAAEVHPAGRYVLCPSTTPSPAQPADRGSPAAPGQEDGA

off-target kinases [3] = molecular target: T1, off-target kinases (Homo sapiens, UniProt Q08881); settings: ITK, ZLYTE, ATP Km app
T1 sequence (Q08881 1-620): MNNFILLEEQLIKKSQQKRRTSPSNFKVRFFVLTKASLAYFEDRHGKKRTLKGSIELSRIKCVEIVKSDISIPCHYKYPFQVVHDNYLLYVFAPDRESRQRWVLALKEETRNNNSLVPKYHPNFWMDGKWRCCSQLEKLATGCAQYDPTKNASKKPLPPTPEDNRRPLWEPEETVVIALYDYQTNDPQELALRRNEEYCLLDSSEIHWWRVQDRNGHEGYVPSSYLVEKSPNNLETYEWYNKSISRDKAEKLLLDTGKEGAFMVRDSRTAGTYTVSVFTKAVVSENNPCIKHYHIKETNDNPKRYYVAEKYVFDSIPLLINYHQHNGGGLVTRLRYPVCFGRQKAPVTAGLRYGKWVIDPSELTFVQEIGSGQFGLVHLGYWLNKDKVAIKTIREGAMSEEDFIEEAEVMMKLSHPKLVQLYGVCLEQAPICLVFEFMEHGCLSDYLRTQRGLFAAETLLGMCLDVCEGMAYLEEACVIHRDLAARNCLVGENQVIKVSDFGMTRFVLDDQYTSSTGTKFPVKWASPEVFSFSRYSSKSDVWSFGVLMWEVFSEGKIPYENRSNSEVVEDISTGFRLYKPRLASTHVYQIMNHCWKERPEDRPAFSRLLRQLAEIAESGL

off-target kinases [4] = molecular target: off-target kinases (Homo sapiens, UniProt Q15418); settings: RPS6KA1 (RSK1), ZLYTE, ATP Km app
off-target kinases (Homo sapiens, UniProt Q15418), sequence (Q15418 whole entry): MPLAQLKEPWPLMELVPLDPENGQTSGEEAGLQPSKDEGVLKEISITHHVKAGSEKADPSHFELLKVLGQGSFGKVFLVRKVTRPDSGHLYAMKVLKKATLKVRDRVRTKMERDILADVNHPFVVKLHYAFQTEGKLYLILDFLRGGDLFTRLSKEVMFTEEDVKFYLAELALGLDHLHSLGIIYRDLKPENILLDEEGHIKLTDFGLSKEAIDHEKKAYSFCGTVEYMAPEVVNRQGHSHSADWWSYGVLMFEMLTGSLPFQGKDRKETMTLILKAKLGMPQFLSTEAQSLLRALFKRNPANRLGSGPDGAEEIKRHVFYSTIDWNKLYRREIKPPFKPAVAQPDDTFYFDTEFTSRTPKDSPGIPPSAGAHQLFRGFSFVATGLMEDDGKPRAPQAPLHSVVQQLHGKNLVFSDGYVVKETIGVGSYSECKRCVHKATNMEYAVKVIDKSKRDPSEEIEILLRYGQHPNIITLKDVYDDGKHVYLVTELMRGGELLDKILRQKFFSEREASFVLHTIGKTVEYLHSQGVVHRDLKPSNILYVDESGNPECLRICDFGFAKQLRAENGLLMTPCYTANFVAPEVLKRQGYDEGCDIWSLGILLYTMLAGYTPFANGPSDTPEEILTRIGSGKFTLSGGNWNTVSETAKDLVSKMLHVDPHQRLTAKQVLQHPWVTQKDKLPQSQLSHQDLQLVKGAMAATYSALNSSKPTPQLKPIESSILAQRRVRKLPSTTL

off-target kinases [5] = molecular target: off-target kinases (Homo sapiens, UniProt Q86Z02); settings: HIPK1 (Myak), ZLYTE, ATP Km app
off-target kinases (Homo sapiens, UniProt Q86Z02), sequence (Q86Z02 whole entry): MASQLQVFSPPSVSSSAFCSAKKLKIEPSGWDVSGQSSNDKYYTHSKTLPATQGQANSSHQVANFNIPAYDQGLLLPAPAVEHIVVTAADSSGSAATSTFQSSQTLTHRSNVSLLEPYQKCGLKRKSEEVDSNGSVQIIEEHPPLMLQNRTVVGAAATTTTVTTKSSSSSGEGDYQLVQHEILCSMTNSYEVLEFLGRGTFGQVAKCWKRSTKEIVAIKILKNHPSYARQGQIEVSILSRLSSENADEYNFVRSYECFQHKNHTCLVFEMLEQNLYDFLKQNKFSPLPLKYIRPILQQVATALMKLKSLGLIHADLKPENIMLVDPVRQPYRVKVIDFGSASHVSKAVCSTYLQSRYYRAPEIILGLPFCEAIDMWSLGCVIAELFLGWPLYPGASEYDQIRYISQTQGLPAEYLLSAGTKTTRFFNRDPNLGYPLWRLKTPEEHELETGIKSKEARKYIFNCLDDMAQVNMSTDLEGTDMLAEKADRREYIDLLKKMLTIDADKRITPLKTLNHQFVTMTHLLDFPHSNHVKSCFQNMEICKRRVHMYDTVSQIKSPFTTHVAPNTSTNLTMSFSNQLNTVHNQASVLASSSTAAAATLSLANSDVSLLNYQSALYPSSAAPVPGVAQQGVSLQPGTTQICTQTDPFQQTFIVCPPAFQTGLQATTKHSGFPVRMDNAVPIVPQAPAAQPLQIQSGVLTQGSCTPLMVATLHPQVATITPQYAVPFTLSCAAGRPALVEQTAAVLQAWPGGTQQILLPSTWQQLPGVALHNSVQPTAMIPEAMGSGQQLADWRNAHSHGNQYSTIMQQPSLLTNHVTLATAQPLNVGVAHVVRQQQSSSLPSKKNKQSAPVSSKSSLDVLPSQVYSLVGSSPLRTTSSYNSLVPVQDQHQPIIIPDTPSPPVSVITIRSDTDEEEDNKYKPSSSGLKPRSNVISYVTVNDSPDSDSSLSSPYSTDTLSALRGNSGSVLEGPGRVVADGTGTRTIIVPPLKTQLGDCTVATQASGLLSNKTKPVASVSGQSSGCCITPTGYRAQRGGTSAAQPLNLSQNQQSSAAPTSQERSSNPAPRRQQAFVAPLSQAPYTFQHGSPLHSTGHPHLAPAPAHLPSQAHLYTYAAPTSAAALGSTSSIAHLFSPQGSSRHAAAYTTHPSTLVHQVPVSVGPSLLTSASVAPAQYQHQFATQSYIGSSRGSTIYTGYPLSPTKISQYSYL

off-target kinases [6] = molecular target: T2, off-target kinases (Homo sapiens, UniProt Q92630); settings: DYRK2, LanthaScreen Binding
T2 sequence (Q92630 1-601): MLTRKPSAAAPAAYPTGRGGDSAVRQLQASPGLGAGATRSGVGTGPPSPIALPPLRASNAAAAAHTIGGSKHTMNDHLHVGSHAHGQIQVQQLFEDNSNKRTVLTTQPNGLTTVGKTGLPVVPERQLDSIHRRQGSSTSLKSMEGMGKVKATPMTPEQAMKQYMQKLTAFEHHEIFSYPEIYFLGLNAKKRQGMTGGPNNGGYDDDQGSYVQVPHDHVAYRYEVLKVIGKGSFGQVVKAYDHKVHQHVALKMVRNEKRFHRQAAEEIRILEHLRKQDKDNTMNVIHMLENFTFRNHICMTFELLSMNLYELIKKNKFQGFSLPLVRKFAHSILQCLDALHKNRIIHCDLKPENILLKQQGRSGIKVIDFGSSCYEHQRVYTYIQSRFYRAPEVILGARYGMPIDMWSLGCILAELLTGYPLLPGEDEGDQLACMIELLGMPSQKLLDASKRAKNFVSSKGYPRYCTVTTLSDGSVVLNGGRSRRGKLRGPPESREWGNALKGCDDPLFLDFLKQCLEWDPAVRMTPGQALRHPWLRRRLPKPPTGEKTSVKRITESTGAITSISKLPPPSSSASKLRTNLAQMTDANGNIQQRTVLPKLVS

off-target kinases [7] = molecular target: off-target kinases (Homo sapiens, UniProt Q9Y2K2); settings: SIK3, LanthaScreen Binding

SMILES: N#Cc1cc(-c2ncnc(Nc3ccc(N4CCN(C5COC5)CC4)cc3)n2)ccc1OC1CCOCC1 [Compound 1, 5-(4-((4-(4-(oxetan-3-yl)piperazin-1-yl)phenyl)amino)-1,3,5-triazin-2-yl)-2-((tetrahydro-2H-pyran-4-yl)oxy)benzonitrile]
- inhibition (off-target kinases [1]; read-out: % Inhibition 1): 71%
- inhibition (off-target kinases [1]; read-out: % Inhibition 2): 66%
- inhibition (off-target kinases [1]; read-out: % Inhibition Avg): 69%
- inhibition (off-target kinases [2]; read-out: % Inhibition 1): 28%
- inhibition (off-target kinases [2]; read-out: % Inhibition 2): 27%
- inhibition (off-target kinases [2]; read-out: % Inhibition Avg): 27%
- inhibition (off-target kinases [3]; read-out: % Inhibition 1): 37%
- inhibition (off-target kinases [3]; read-out: % Inhibition 2): 32%
- inhibition (off-target kinases [3]; read-out: % Inhibition Avg): 34%
- inhibition (off-target kinases [4]; read-out: % Inhibition 1): 15%
- inhibition (off-target kinases [4]; read-out: % Inhibition 2): 11%
- inhibition (off-target kinases [4]; read-out: % Inhibition Avg): 13%
- inhibition (off-target kinases [5]; read-out: % Inhibition 1): 11%
- inhibition (off-target kinases [5]; read-out: % Inhibition 2): 13%
- inhibition (off-target kinases [5]; read-out: % Inhibition Avg): 12%
- inhibition (off-target kinases [6]; read-out: % Inhibition 1): 54%
- inhibition (off-target kinases [6]; read-out: % Inhibition 2): 53%
- inhibition (off-target kinases [6]; read-out: % Inhibition Avg): 54%
- inhibition (off-target kinases [7]; read-out: % Inhibition 1): 98%
- inhibition (off-target kinases [7]; read-out: % Inhibition 2): 95%
- inhibition (off-target kinases [7]; read-out: % Inhibition Avg): 96%
